{
  "source": "patent US20130109664A1",
  "about": "(priority 2011, published 2013)",
  "key": {"[1]": {"tested_on": "Malassezia furfur", "test": "Intrinsic anti-Malassezia potency, growth inhibition by optical density", "format": "cell-based", "conditions": "for IC50: M. furfur in mDixon medium, overnight at 31°, OD 600 nm; for independent anti-fungal effectiveness (in words): comment on Table 1 data", "experimental": "To measure the growth inhibition properties of test materials against Malassezia, we carried out the following protocol.\nStarting cultures are prepared by incubating with shaking at 31°. Cells (5 ml of culture) are collected by centrifugation and suspended in 50 ml fresh mDixon medium. […] The plates are shaken vigorously on a Heidolph Titramax 100 overnight at 31°. To increase the humidity, water-soaked cotton batting is placed over the plates.\nAs a control, the optical density of untreated M. furfur is measured after overnight incubation. As another control, the optical density of the starting culture is measured. The difference between these optical densities represents the amount of growth of M. furfur."}, "[2]": {"conditions": "cited from earlier work"}, "[3]": {"tested_on": "M. furfur 7982", "test": "Fractional Inhibitor Concentration (FIC) of chelator in combination with ZPT", "format": "cell-based, Malassezia furfur", "conditions": "average of duplicate plates, 2 days at 33° C., ≦0.5 synergistic, >0.5-1.0 additive", "from_the_text": "Fractional Inhibitor Concentration (FIC) is a conventional methodology for evaluating antimicrobial interactions. In an embodiment of the present invention, an FIC is used to determine combinatorial effects of two chemicals on anti-Malassezia activity in a tissue culture setting.\n• 1. Each FIC assay is run in duplicate. • 2. Low levels of M. furfur 7982 cells are inoculated into each well of a 96 well plate. • 3. Chemical #1 (in our assays, this is always ZPT) is titrated (2× concentration reductions) from right to left across each row of the plate, starting at 12.5 ppm final concentration and ending at 0 ppm. • 4. […] Plates are incubated at 33° C., 60% RH for 2 days with agitation. • 6. Optical densities (OD's) are then determined using a spectrophotometer.\n• 1. […] Lack of inhibition of growth is determined if the OD>0.6, and the well is labeled with a ‘+’. • 3. The lowest concentration value of chemical #1, both by itself and with the lowest concentration of chemical #1 which boosts chemical #2's potency, that inhibit growth are determined (see FIG. 1). • 4. Likewise, the lowest concentration of chemical #2, both by itself and with the lowest concentration of chemical #2 that boosts chemical #1's potency, that inhibit growth are determined (see FIG. 1). • 5. The FIC value for the duplicate plates is determined using the calculations below:\n[formula] [formula] • 6. The average FIC value is then determined, and the combinatorial effect of the two chemicals is classified according to the chart below: […]"}, "[4]": {"test": "Iron affinity, stepwise association constant log K1", "format": "physicochemical", "from_the_text": "The strength of the association between a ligand and metal, in this case iron, can be termed iron affinity.\nThe affinity constant is conveniently expressed as the logarithm (log K1) and the larger the magnitude of this number, the stronger the association between the metal (iron ions in this case) and ligand."}, "[5]": {"conditions": "source (a) NIST Standard Reference Database 46"}, "[6]": {"conditions": "(e) interpolated from correlation between Cu2+ and Fe2+ data"}, "[7]": {"conditions": "(c) interpolated from correlation between Zn2+ and Fe2+ data"}, "[8]": {"conditions": "(d) interpolated from correlation between Fe3+ and Fe2+ data"}, "[9]": {"conditions": "source (b) IUPAC Stability Constant Database"}},
  "note": "Where two headings read alike, the source gives them in different places.",
  "data": [
    {"compound": "O=C(O)CN(CC(=O)O)[C@@H]1CCCC[C@H]1N(CC(=O)O)CC(=O)O", "note": "(relative stereo) [trans-1,2-Cyclohexylenedinitrilotetraacetic acid]", "values": [
      {"measurement": "IC50", "setting": "[1]", "value": 500, "unit": "µM"},
      {"measurement": "Iron Affinity, log K1 Fe2+, pH = 7.4", "setting": "[2]; [5]", "value": 14.0}
    ]},
    {"compound": "Cc1c([O-])c(=O)ccn1C.Cc1c([O-])c(=O)ccn1C.[Zn+2]", "note": "[1,2-Dimethyl-3-hydroxy-4-pyridone, Zinc salt]", "values": [
      {"measurement": "FIC (Fractional Inhibitory Concentration)", "setting": "[3]", "value": 0.5}
    ]},
    {"compound": "C1CNCCNCCNCCNCCNCCN1", "note": "[1,4,7,10,13,16-Hexaazacyclooctadecane]", "values": [
      {"measurement": "Iron Affinity, log K1 Fe2+, pH = 7.4", "setting": "[4]; [6]", "value": 13.3}
    ]},
    {"compound": "O=C(O)CN1CCCN(CC(=O)O)CCN(CC(=O)O)CCCN(CC(=O)O)CC1", "note": "[1,4,8,11-Tetraazacyclotetradecane-N,N′,N″,N″′-tetraacetic acid]", "values": [
      {"measurement": "IC50", "setting": "[1]", "value": "> 500", "unit": "µM"},
      {"measurement": "Iron Affinity, log K1 Fe2+, pH = 7.4", "setting": "[2]; [5]", "value": 9.9}
    ]},
    {"compound": "S=C(N=Nc1ccccc1)NNc1ccccc1", "note": "[1,5-Diphenyl-1,2,4,5-tetraazapent-1-en-3-thione]", "values": [
      {"measurement": "Iron Affinity, log K1 Fe2+, pH = 7.4", "setting": "[2]; [5]", "value": 6.5}
    ]},
    {"compound": "c1cnc2c(c1)ccc1cccnc12", "note": "[1,10-Phenanthroline]", "values": [
      {"measurement": "Iron Affinity, log K1 Fe2+, pH = 7.4", "setting": "[2]; [5]", "value": 5.9}
    ]},
    {"compound": "Oc1ccc2ccccc2c1N=Nc1nccs1", "note": "[1-(2-Thiazoylazo)-2-naphthol]", "values": [
      {"measurement": "Iron Affinity, log K1 Fe2+, pH = 7.4", "setting": "[4]; [7]", "value": 6.6},
      {"measurement": "IC50", "setting": "[1]", "value": 250, "unit": "µM"}
    ]},
    {"compound": "CC(C)c1cccc(O)c(=O)c1", "note": "[1-Hydroxy-4-(1-methylethyl)cyclohepta-3,5,7-trien-2-one]", "values": [
      {"measurement": "Iron Affinity, log K1 Fe2+, pH = 7.4", "setting": "[4]; [7]", "value": 4.9},
      {"measurement": "IC50", "setting": "[1]; Malassezia furfur", "value": 65, "unit": "µM"}
    ]},
    {"compound": "c1ccc(-c2cccc(-c3ccccn3)n2)nc1", "note": "[2,2′: 6′,2″-terpyridine]", "values": [
      {"measurement": "Iron Affinity, log K1 Fe2+, pH = 7.4", "setting": "[4]; [7]", "value": 5.0}
    ]},
    {"compound": "Cc1ccc2ccc3ccc(C)nc3c2n1", "note": "[2,9-dimethyl-1,10-phenanthroline]", "values": [
      {"measurement": "Iron Affinity, log K1 Fe2+, pH = 7.4", "setting": "[4]; [7]", "value": 3.3}
    ]},
    {"compound": "NCCc1ccccn1", "note": "[2-(2-aminoethyl)-pyridine]", "values": [
      {"measurement": "Iron Affinity, log K1 Fe2+, pH = 7.4", "setting": "[4]; [8]", "value": 5.2}
    ]},
    {"compound": "Cc1c(O)c(=O)ccn1C", "note": "[3-Hydroxy-1,2-dimethyl-4(1H)-pyridone]", "values": [
      {"measurement": "Iron Affinity, log K1 Fe2+, pH = 7.4", "setting": "[4]; [7]", "value": 3.9}
    ]},
    {"compound": "Oc1ccc(N=Nc2nccs2)c(O)c1", "note": "[4-(2-thiazolylazo)-resorcinol]", "values": [
      {"measurement": "Iron Affinity, log K1 Fe2+, pH = 7.4", "setting": "[2]; [5]", "value": 3.2}
    ]},
    {"compound": "Oc1c(Cl)cc(Cl)c2cccnc12", "note": "[5,7-dichloro-8-hydroxyquinoline]", "values": [
      {"measurement": "Iron Affinity, log K1 Fe2+, pH = 7.4", "setting": "[2]; [9]", "value": 7.2}
    ]},
    {"compound": "Oc1c(I)cc(Cl)c2cccnc12", "note": "[5-Chloro-8-hydroxy-7-iodoquinoline]", "values": [
      {"measurement": "Iron Affinity, log K1 Fe2+, pH = 7.4", "setting": "[2]; [9]", "value": 7.0}
    ]},
    {"compound": "Oc1cccc2cccnc12", "note": "[8-hydroxyquinoline]", "values": [
      {"measurement": "Iron Affinity, log K1 Fe2+, pH = 7.4", "setting": "[4]; [7]", "value": 4.9}
    ]},
    {"compound": "O=C(O)CN(CCN(CC(=O)O)CC(=O)O)CC(=O)O", "note": "[Ethylenediaminetetraacetic acid]", "values": [
      {"measurement": "IC50", "setting": "[1]; Malassezia furfur", "value": "> 500", "unit": "µM"},
      {"measurement": "independent anti-fungal effectiveness (in words)", "setting": "[1]", "value": "not to be effective"}
    ]},
    {"compound": "CCC(NCCNC(CC)C(=O)O)C(=O)O", "note": "(stereo not shown) [Ethylenediiminodi-2-butanoic acid]", "values": [
      {"measurement": "Iron Affinity, log K1 Fe2+, pH = 7.4", "setting": "[4]; [7]", "value": 6.3},
      {"measurement": "IC50", "setting": "[1]", "value": "> 500", "unit": "µM"}
    ]},
    {"compound": "c1ccc(CN(CCN(Cc2ccccn2)Cc2ccccn2)Cc2ccccn2)nc1", "note": "[N,N,N′,N-tetrakis(2-pyridylmethyl) ethylenediamine]", "values": [
      {"measurement": "IC50", "setting": "[1]", "value": 71, "unit": "µM"},
      {"measurement": "Iron Affinity, log K1 Fe2+, pH = 7.4", "setting": "[2]; [5]", "value": 14.2}
    ]},
    {"compound": "O=C(O)CN(CCO)CCO", "note": "[N,N-Bis(2-hydroxyethyl)glycine]", "values": [
      {"measurement": "Iron Affinity, log K1 Fe2+, pH = 7.4", "setting": "[4]; [7]", "value": 3.6}
    ]},
    {"compound": "O=C1c2cccc3cccc(c23)C(=O)N1O", "note": "[N,N-Naphthaloylhydroxylamine]", "values": [
      {"measurement": "FIC (Fractional Inhibitory Concentration)", "setting": "[3]", "value": 0.8}
    ]},
    {"compound": "CCCCCCCCOc1cccc(=O)n1O.NCCO", "note": "[N-Hydroxy-6-octyloxypyridine-2(1H)one, ethanolamine salt]", "values": [
      {"measurement": "Iron Affinity, log K1 Fe2+, pH = 7.4", "setting": "[4]; [8]", "value": 5.4},
      {"measurement": "IC50", "setting": "[1]", "value": 54.6, "unit": "µM"},
      {"measurement": "FIC (Fractional Inhibitory Concentration)", "setting": "[3]", "value": 0.62}
    ]},
    {"compound": "CCCCCCCCOc1cccc(=O)n1[O-].CCCCCCCCOc1cccc(=O)n1[O-].[Zn+2]", "note": "[N-Hydroxy-6-octyloxypyridine-2(1H)one, zinc salt]", "values": [
      {"measurement": "FIC (Fractional Inhibitory Concentration)", "setting": "[3]", "value": 0.7}
    ]},
    {"compound": "O=C(O)c1ccccc1O", "note": "[Salicylic acid]", "values": [
      {"measurement": "Iron Affinity, log K1 Fe2+, pH = 7.4", "setting": "[4]; [6]", "value": "−3.0"},
      {"measurement": "IC50", "setting": "[1]; Malassezia furfur", "value": "> 500", "unit": "µM"}
    ]},
    {"compound": "Cc1occc(=S)c1O", "note": "[Thiomaltol]", "values": [
      {"measurement": "FIC (Fractional Inhibitory Concentration)", "setting": "[3]", "value": 0.8}
    ]},
    {"compound": "[O-]n1ccccc1=S.[O-]n1ccccc1=S.[Zn+2]", "note": "[Zinc Pyrithione, zinc salt of 1-hydroxy-2-pyridinethione]", "values": [
      {"measurement": "Iron Affinity, log K1 Fe2+, pH = 7.4", "setting": "[4]; [7]", "value": 4.3}
    ]},
    {"compound": "NCCC(=O)N[C@@H](Cc1c[nH]cn1)C(=O)O", "note": "[beta-Alanyl-L-histidine]", "values": [
      {"measurement": "Iron Affinity, log K1 Fe2+, pH = 7.4", "setting": "[4]; [7]", "value": 1.3}
    ]},
    {"compound": "O=c1cc(CO)occ1O", "note": "[kojic acid]", "values": [
      {"measurement": "Iron Affinity, log K1 Fe2+, pH = 7.4", "setting": "[4]; [7]", "value": 3.7}
    ]},
    {"compound": "Cc1occc(=O)c1O", "note": "[maltol]", "values": [
      {"measurement": "Iron Affinity, log K1 Fe2+, pH = 7.4", "setting": "[4]; [7]", "value": 6.4},
      {"measurement": "independent anti-fungal effectiveness (in words)", "setting": "[1]", "value": "too hydrophilic to be an effective anti-fungal material independently"}
    ]},
    {"compound": "Benzohydroxamic acid, Zinc Salt", "values": [
      {"measurement": "FIC (Fractional Inhibitory Concentration)", "setting": "[3]", "value": 0.3}
    ]},
    {"compound": "Maltol, Zinc salt", "values": [
      {"measurement": "FIC (Fractional Inhibitory Concentration)", "setting": "[3]", "value": 0.1}
    ]},
    {"compound": "Thiomaltol, Zinc salt", "values": [
      {"measurement": "FIC (Fractional Inhibitory Concentration)", "setting": "[3]", "value": 0.5}
    ]}
  ]
}
